From patent US20100041089A1, “IMPROVED METHOD FOR DETECTING CHEMICAL […]” (priority 2006, published 2010)

Test system: yeast genes (expressed mRNA)
Experiment: DNA chip measurement of expressed mRNA of yeast genes after culture with a toxic chemical substance
Format: cell-based, Saccharomyces cerevisiae S288C
Procedure: Yeast (Saccharomyces cerevisiae S288C (a SUC2mal mel gap2 CUP1)) were cultured at 25° C. on YPD medium (yeast extract 1%, polypeptone 2%, glucose 2%). One of toxic chemical substances was added to the cell at logarithmic growth phase, and the cell was further cultured for two hours. Cell was cultured without any chemical substance in the same condition, and was used as a control. Concentrations of the chemical substances were defined to inhibit the growth of the yeast but not lead to death.
After the completion of cultivation, the culture was centrifuged to collect the cells. To the cells, sodium acetate buffer (50 mM sodium acetate, 10 mM EDTA, 1% SDS) was added, and the mixture was shaken at 65° C. for five minutes, followed by returning to room temperature, and obtaining the supernatant, which procedure was repeated two times. To the supernatant, ½ amount of a solution of phenol/chloroform (1:1) was added, and the mixture was centrifuged to give a supernatant, an equal amount of chloroform was added, and the mixture was centrifuged to give a supernatant. To the supernatant, an equal amount of isopropanol containing 0.3 M sodium acetate was added, and the mixture was allowed to stand at room temperature for 30 minutes, after which the mixture was centrifuged to give sediment of the whole RNAs. Seventy % ethanol was added to the sediment, and the mixture was again centrifuged to give sediment, which was then dried and dissolved in water. mRNA was isolated from the whole RNAs as followings. In view of the fact that a poly A chain is attached to the 3′ terminus of mRNA, a polynucleotide having a poly T structure which was immobilized on the surface of latex beads was used to trap the mRNA, and then the mRNA was washed and eluted with spine column (Oligotex-dT30<Super>mRNA Purification Kit, Takara). Reverse transcription of the mRNA was conducted with a reverse transcriptase (Super Script II Reverse Transcriptase; catalogue No. 18064-014, GibcoBRL) using fluorescence-labeled nucleotides to give cDNAs that were introduced with Cy3-dUTP or Cy5-dUTP during the reverse transcription.
The labeled cDNAs were dissolved in TE buffer (10 mM Tris-HCl/1 mM EDTA, pH 8.0), and the solution was dropped on the DNA chip containing the whole genes of yeast (DNA Chip Research Inc. Japan) so that the cDNAs were hybridized on the DNA chip at 65° C. for over 12 hours. The fluoresces intensity of the DNA chip was read with a scanner, and the ratio relative to the fluorescence intensity resulting from the absence of chemical substance was estimated as the following, which is shown in Tables 1 to 9.
In the Tables, “Intensity” indicated in the rightmost column is a value of the level of expressed mRNA of each gene in control cells as divided by the average level of the expressions of the whole genes. A gene of which mRNA level is lower in control, and is higher in cases of addition of chemical substance, is especially useful in the detection of toxic substances.
Here, when a ratio of an amount of mRNA expressed in the presence of the chemical substance to an amount of mRNA expressed in the absence of the chemical substance is two or more, then it is considered significant.

Measured: The level of expressed mRNA in the presence of chemical substance/The level of expressed mRNA in the absence of chemical substance

C=CC=O [(14), Acrolein]
3.7: yeast gene YDL021W, cultured for two hours with substance
9.3: yeast gene YPL171C, cultured for two hours with substance
14.7: yeast gene YKR076W
1.9: yeast gene YER163C, cultured two hours with substance | yeast gene YKR091W, cultured two hours with substance | yeast gene YMR009W, cultured two hours with substance
6.6: yeast gene YKL198C
5.0: yeast gene YBL064C (detoxification protein gene) | yeast gene YGR209C (detoxification protein gene)
0.7: yeast gene YAL053W, cultured two hours with substance | yeast gene YDR545W, cultured two hours with substance | yeast gene YIL023C, cultured two hours with substance | yeast gene YMR102C, cultured two hours with substance | yeast gene YOR197W, cultured two hours with substance
7.3: yeast gene YFL014W, DNA repair protein genes, cultured two hours with substance
8.1: yeast gene YMR107W, cultured two hours with substance
2.7: yeast gene YBR116C, cultured two hours with substance
5.1: yeast gene YNL036W
3.1: yeast gene YGL091C, DNA repair protein genes, cultured two hours with substance
2.3: yeast gene YDR391C, cultured two hours with substance | yeast gene YGL047W, cultured two hours with substance | yeast gene YGL136C, cultured two hours with substance | yeast gene YOL131W, cultured two hours with substance
11.0: yeast gene YLL056C, cultured two hours with substance
4.6: yeast gene YER012W | yeast gene YNL335W
1.4: yeast gene YFL010C, cultured two hours with substance | yeast gene YGR221C, cultured two hours with substance | yeast gene YJL152W, cultured two hours with substance | yeast gene YLR324W, cultured two hours with substance | yeast gene YNL156C, cultured two hours with substance | yeast gene YOL082W, cultured two hours with substance | yeast gene YOL083W, cultured two hours with substance | yeast gene YOL162W, cultured two hours with substance | yeast gene YOR019W, cultured two hours with substance | yeast gene YPR151C, cultured two hours with substance
0.5: yeast gene YJL082W, cultured two hours with substance | yeast gene YLR280C, cultured two hours with substance | yeast gene YOR248W, cultured two hours with substance
4.1: yeast gene YCR102C, cultured two hours with substance | yeast gene YGR043C, cultured for two hours with substance
10.6: yeast gene YLL060C (detoxification protein gene) | yeast gene YLL060C (stress protein genes)
2.2: yeast gene YDR511W, cultured two hours with substance | yeast gene YGR154C, cultured two hours with substance | yeast gene YHR209W, cultured two hours with substance | yeast gene YJL161W, cultured two hours with substance | yeast gene YMR095C, cultured two hours with substance
3.2: yeast gene YPL052W, cultured two hours with substance
1.6: yeast gene YER079W, cultured two hours with substance | yeast gene YJL057C, cultured two hours with substance | yeast gene YKL195W, cultured two hours with substance | yeast gene YPL196W, cultured two hours with substance
2.0: yeast gene YBL048W, cultured two hours with substance | yeast gene YHR199C, cultured two hours with substance
2.6: yeast gene YBR062C, cultured two hours with substance | yeast gene YIL117C, cultured two hours with substance
0.6: yeast gene YFL032W, cultured two hours with substance | yeast gene YNL074C, cultured two hours with substance | yeast gene YNL190W, cultured two hours with substance
6.5: yeast gene YMR090W, cultured two hours with substance
1.8: yeast gene YDL072C, cultured two hours with substance | yeast gene YER004W, cultured two hours with substance | yeast gene YNR068C, cultured two hours with substance
1.3: yeast gene YDL222C, cultured two hours with substance | yeast gene YEL001C, cultured two hours with substance | yeast gene YER038C, cultured two hours with substance | yeast gene YGR146C, cultured two hours with substance | yeast gene YIL041W, cultured two hours with substance | yeast gene YIL087C, cultured two hours with substance | yeast gene YJL151C, cultured two hours with substance | yeast gene YKL151C, cultured two hours with substance | yeast gene YMR195W, cultured two hours with substance | yeast gene YMR295C, cultured two hours with substance | yeast gene YMR316W, cultured two hours with substance | yeast gene YNL305C, cultured two hours with substance | yeast gene YOL032W, cultured two hours with substance | yeast gene YPR079W, cultured two hours with substance
2.1: yeast gene YFR003C, cultured two hours with substance | yeast gene YGR064W, cultured two hours with the chemical substance | yeast gene YKL065C, cultured two hours with substance | yeast gene YKR049C, cultured two hours with substance | yeast gene YKR097W, cultured for two hours with substance | yeast gene YLR408C, cultured two hours with the substance | yeast gene YML054C, cultured for two hours with substance | yeast gene YML087C, cultured for two hours with substance | yeast gene YMR097C, cultured two hours with substance | yeast gene YNL155W, cultured two hours with substance
0.8: yeast gene YDR411C, cultured two hours with substance | yeast gene YGL199C, cultured two hours with substance | yeast gene YJL186W, cultured two hours with substance | yeast gene YML117W, cultured two hours with substance | yeast gene YNL300W, cultured two hours with substance | yeast gene YNR064C, cultured two hours with substance
1.0: yeast gene YER035W, cultured two hours with substance | yeast gene YGL037C, cultured two hours with substance | yeast gene YJL066C, cultured two hours with substance | yeast gene YJL108C, cultured two hours with substance | yeast gene YJL171C, cultured two hours with substance | yeast gene YNL115C, cultured two hours with substance | yeast gene YNL208W, cultured two hours with substance | yeast gene YOL036W, cultured two hours with substance
1.7: yeast gene YFL006W, cultured two hours with substance | yeast gene YLR387C, cultured two hours with substance | yeast gene YMR180C, cultured two hours with substance | yeast gene YOL117W, cultured two hours with substance
1.1: yeast gene YDR330W, cultured two hours with substance | yeast gene YER175C, cultured two hours with substance | yeast gene YGL053W, cultured two hours with substance | yeast gene YJL149W, cultured two hours with substance | yeast gene YKL153W, cultured two hours with substance | yeast gene YLR054C, cultured two hours with substance | yeast gene YPL206C, cultured two hours with substance | yeast gene YPL222W, cultured two hours with substance
21.9: yeast gene YKL071W, cultured two hours with substance
2.4: yeast gene YDL204W, cultured two hours with substance | yeast gene YDR486C, cultured two hours with substance | yeast gene YLR205C, cultured two hours with substance
2.9: yeast gene YKL086W, cultured two hours with substance
5.8: yeast gene YGL121C, cultured two hours with substance | yeast gene YHR179W, cultured for two hours with substance
4.7: yeast gene YDL059C, DNA repair protein genes, cultured two hours with substance | yeast gene YMR096W, DNA repair protein genes, cultured two hours with substance
1.2: yeast gene YAR028W, cultured two hours with substance | yeast gene YJL020C, cultured two hours with substance | yeast gene YJR008W, cultured two hours with substance | yeast gene YJR054W, cultured two hours with substance | yeast gene YLR149C, cultured two hours with substance | yeast gene YLR152C, cultured two hours with substance | yeast gene YLR194C, cultured two hours with substance | yeast gene YMR140W, cultured two hours with substance | yeast gene YNL044W, cultured two hours with substance | yeast gene YNL092W, cultured two hours with substance | yeast gene YNL281W, cultured two hours with substance | yeast gene YOL047C, cultured two hours with substance | yeast gene YPL087W, cultured two hours with substance
0.9: yeast gene YER158C, cultured two hours with substance | yeast gene YGR101W, cultured two hours with substance | yeast gene YGR130C, cultured two hours with substance | yeast gene YPR023C, cultured two hours with substance
2.8: yeast gene YGR110W, cultured two hours with substance | yeast gene YLR350W, cultured two hours with substance
1.5: yeast gene YBL049W, cultured two hours with substance | yeast gene YCR013C, cultured two hours with substance | yeast gene YEL057C, cultured two hours with the chemical substance | yeast gene YER106W, cultured two hours with substance | yeast gene YIL024C, cultured two hours with substance | yeast gene YIL057C, cultured two hours with the chemical substance | yeast gene YJL036W, cultured two hours with substance | yeast gene YLR031W, cultured two hours with substance | yeast gene YMR067C, cultured two hours with substance | yeast gene YMR184W, cultured two hours with substance | yeast gene YMR191W, cultured two hours with substance | yeast gene YNL195C, cultured two hours with the chemical substance | yeast gene YNL234W, cultured two hours with substance | yeast gene YOR049C, cultured two hours with substance
4.8: yeast gene YDL218W, cultured two hours with substance
3.4: yeast gene YHR138C, cultured two hours with substance
3.5: yeast gene YHR029C, cultured two hours with substance | yeast gene YLR460C, cultured two hours with substance
2.5: yeast gene YBL107C, cultured two hours with substance | yeast gene YDR031W, cultured two hours with substance | yeast gene YJR048W, cultured for two hours with substance | yeast gene YOL071W, cultured two hours with substance | yeast gene YOR338W, cultured two hours with substance
5.9: yeast gene YIL015W
3.3: yeast gene YFL024C, cultured two hours with substance
5.7: yeast gene YOL150C, cultured two hours with substance
